Measured values published in PMC10746112, “Synthesis and Pro-Apoptotic Effects of Nitrovinylanthracenes and Related Compounds in Chronic Lymphocytic Leukaemia (CLL) and Burkitt’s Lymphoma (BL)” (Molecules, 2023).
Like-named read-outs stand apart in the source and are kept apart here.

Experiments:
Experiment in all cases: alamarBlue cell viability assay
HG-3 CLL cell line = settings: 24 h; for viability at 10 µM: read-out: % Viability HG-3, 10 µM, 24 h
PGA-1 CLL cell line = settings: 24 h; for viability at 10 µM: CLL cell
[1] = system: MUTU-I Burkitt’s lymphoma cell line; settings: MUTU-I, 24 h
[2] = system: DG-75 Burkitt’s lymphoma cell line; settings: Homo sapiens, DG-75, 48 h
[3] = read-out: % Viable Cells Remaining MUTU-1, 1 µM, 24 h
[4] = read-out: % Viable Cells Remaining MUTU-1, 10 µM, 24 h
[5] = read-out: % Viable Cells Remaining DG-75, 1 µM, 48 h
[6] = read-out: % Viable Cells Remaining DG-75, 10 µM, 48 h
[7] = read-out: % Viability PGA-1, 10 µM, 24 h
[8] = read-out: % Viable Cells Remaining MUTU-1
[9] = read-out: % Viable Cells Remaining DG-75

| Compound | viability at 1 µM [1, 3] [%] | viability at 10 µM [1, 4] [%] | viability at 1 µM [2, 5] [%] | viability at 10 µM [2, 6] [%] | also measured |
| --- | --- | --- | --- | --- | --- |
| CC/C(=C\c1ccccc1F)[N+](=O)[O-] [Compound 11d] | – | – | – | – | % Viability HG-3 (HG-3 CLL cell line; 10 µM): 0.66%; viability at 1 µM (HG-3 CLL cell line; CLL cell, read-out: % Viability HG-3, 1 µM, 24 h): 14.5%; % Viability PGA-1 (PGA-1 CLL cell line; 10 µM): 0.02% |
| C/C(=C\c1c2ccccc2cc2ccccc12)[N+](=O)[O-] [Compound 19b, (E)-9-(2-nitroprop-1-en-1-yl)anthracene] | 99.8 | 88.2 | 102 | 89.3 | viability at 10 µM (HG-3 CLL cell line; CLL cell): 82%; viability at 10 µM (PGA-1 CLL cell line; [7]): 81% |
| CC/C(=C\c1c2ccccc2cc2ccccc12)[N+](=O)[O-] [Compound 19c] | 88.6 | 78 | 83.8 | 92.3 | viability at 10 µM (HG-3 CLL cell line; CLL cell): 72%; viability at 10 µM (PGA-1 CLL cell line; [7]): 66% |
| O=[N+]([O-])/C=C/c1c2ccccc2c(-c2ccccc2)c2ccccc12 [Compound 19j, (E)-9-(2-Nitrovinyl)-10-Phenylanthracene] | 68.5 | 1.29 | 83.5 | 1.5 | – |
| O=[N+]([O-])/C=C/c1c2cccc(Cl)c2cc2c(Cl)cccc12 [Compound 19k, (E)-1,8-Dichloro-10-(2-Nitrovinyl)Anthracene] | 71 | -0.18 | 88.7 | 0.15 | – |
| N#CC(C#N)=Cc1c2ccccc2cc2ccccc12 [Compound 23a] | – | – | – | – | viability at 1 µM [1, 8]: 91.9%; viability at 10 µM [1, 8]: 65.3%; viability at 1 µM [2, 9]: 104%; viability at 10 µM [2, 9]: 98.1%; viability at 10 µM (PGA-1 CLL cell line; read-out: % Viability PGA-1): > 50% |
| N#C/C=C/c1c2ccccc2cc2ccccc12 [Compound 23c] | 88.1 | 86.9 | 84.2 | 82 | – |
| OCc1c2ccccc2cc2ccccc12 [Compound 26, anthracen-9-ylmethanol] | 106 | 94.9 | 102 | 93 | – |
| N#CCc1c2ccccc2cc2ccccc12 [Compound 28, 2-(anthracen-9-yl)acetonitrile] | 95.2 | 88.8 | 93.8 | 85.2 | – |
| c1ccc2c(CN3CCCCCC3)c3ccccc3cc2c1 [Compound 29a] | 103 | 99 | 83.6 | 89.3 | – |
| c1ccc2c(CN3CCCC3)c3ccccc3cc2c1 [Compound 29b] | 108 | 106 | 93.2 | 97.2 | – |
| N/N=C/c1c2ccccc2cc2ccccc12 [Compound 32a] | 97.5 | 95.5 | 104 | 102 | – |
| N/N=C/c1c2ccccc2c(Cl)c2ccccc12 [Compound 32b] | 105 | 82.5 | 94.8 | 100 | – |
| O/N=C/c1c2ccccc2cc2ccccc12 [Compound 32c] | 99.2 | 92.7 | 92.5 | 101 | – |
| O/N=C/Cc1c2ccccc2cc2ccccc12 [Compound 32e] | 103 | 94.9 | 102 | 93 | – |
| CCN(CC)C(=O)c1c2ccccc2cc2ccccc12 [Compound 33a] | 105 | 103 | 90.1 | 90.5 | – |
| O=C(c1c2ccccc2cc2ccccc12)N1CCOCC1 [Compound 33e] | 86.9 | 85.2 | 86.1 | 80.2 | – |
| CNCCCC12CCC(c3ccccc31)c1ccccc12 [Maprotiline, maprotiline, reference compound] | 93.1 | 72 | 102 | 65 | – |
